{"source": "patent US20170355705A1", "about": "(GlaxoSmithKline Intellectual Property (No.2) Limited, priority 2014, published 2017)", "biological_target": "T1, SIRT1 (Homo sapiens, UniProt Q96EB6)", "T1 sequence (Q96EB6 1-747)": "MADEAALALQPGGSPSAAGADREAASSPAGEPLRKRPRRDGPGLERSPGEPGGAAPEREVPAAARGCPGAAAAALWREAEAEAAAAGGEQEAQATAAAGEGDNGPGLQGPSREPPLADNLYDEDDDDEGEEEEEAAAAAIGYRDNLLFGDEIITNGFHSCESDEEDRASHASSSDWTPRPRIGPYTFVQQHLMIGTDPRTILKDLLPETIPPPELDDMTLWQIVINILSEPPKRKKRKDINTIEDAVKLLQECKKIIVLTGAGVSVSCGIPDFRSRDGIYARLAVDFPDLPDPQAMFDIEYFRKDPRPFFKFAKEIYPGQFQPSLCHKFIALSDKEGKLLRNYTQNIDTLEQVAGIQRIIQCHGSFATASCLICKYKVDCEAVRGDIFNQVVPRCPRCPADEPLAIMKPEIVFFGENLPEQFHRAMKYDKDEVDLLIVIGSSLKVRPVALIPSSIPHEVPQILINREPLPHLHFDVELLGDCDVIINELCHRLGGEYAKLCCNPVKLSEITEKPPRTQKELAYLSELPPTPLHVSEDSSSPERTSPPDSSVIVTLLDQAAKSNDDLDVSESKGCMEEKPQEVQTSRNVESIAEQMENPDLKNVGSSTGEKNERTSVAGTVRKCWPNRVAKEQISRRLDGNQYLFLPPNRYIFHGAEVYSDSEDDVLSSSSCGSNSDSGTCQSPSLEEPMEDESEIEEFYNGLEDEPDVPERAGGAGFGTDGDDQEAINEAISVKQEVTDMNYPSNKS", "assay": "Trp mass spectrometry assay of SIRT1 activity (EC1.5, percent maximum activation)", "assay_type": "biochemical", "conditions": "Trp mass spectrometry assay; for TRP Activity (EC1.5): EC1.5 = concentration giving 150% activation of SIRT1", "text": "Mass spectrometry based assays were used to identify modulators of SIRT1 activity. […] The peptide was labeled with the fluorophore 5TMR (excitation 540 nm/emission 580 nm) at the C-terminus. The sequence of the peptide substrate was based on p53 with several modifications. In addition, the methionine residue naturally present in the sequence was replaced with the norleucine because the methionine may be susceptible to oxidation during synthesis and purification.\nThe Trp mass spectrometry assay was conducted as follows. […] The SIRT1 protein was obtained by cloning the SirT1 gene into a T7-promoter containing vector, which was then expressed in BL21(DE3) bacterial cells and purified as described in further detail below. Test compound was added at varying concentrations to this reaction mixture and the resulting reactions were monitored. After the 25 minute incubation with SIRT1, 10 μL of 10% formic acid was added to stop the reaction. The resulting reactions were sealed and frozen for later mass spec analysis. The relative SIRT1 activity was then determined by measuring the amount of O-acetyl-ADP-ribose (OAADPR) formed (or, alternatively, the amount of deacetylated Trp peptide generated) by the NAD-dependent sirtuin deacetylation reaction in the presence of varying concentrations of the test compound versus control reactions lacking the test compound. The degree to which the test agent activated deacetylation by SIRT1 was expressed as EC1.5 (i.e., the concentration of compound required to increase SIRT1 activity by 50% over the control lacking test compound), and Percent Maximum Activation (i.e., the maximum activity relative to control (100%) obtained for the test compound).\nThis time point was the same as that used for test compounds and, within the linear range, the endpoint represents a change in velocity.\nFor the above assay, SIRT1 protein was expressed and purified as follows. The SirT1 gene was cloned into a T7-promoter containing vector and transformed into BL21(DE3). The protein was expressed by induction with 1 mM IPTG as an N-terminal His-tag fusion protein at 18° C. overnight and harvested at 30,000×g. Cells were lysed with lysozyme in lysis buffer (50 mM Tris-HCl, 2 mM Tris[2-carboxyethyl]phosphine (TCEP), 10 μM ZnCl2, 200 mM NaCl) and further treated with sonication for 10 min for complete lysis. The protein was purified over a Ni-NTA column (Amersham) and fractions containing pure protein were pooled, concentrated and run over a sizing column (Sephadex S200 26/60 global). The peak containing soluble protein was collected and run on an Ion-exchange column (MonoQ). Gradient elution (200 mM-500 mM NaCl) yielded pure protein. This protein was concentrated and dialyzed against dialysis buffer (20 mM Tris-HCl, 2 mM TCEP) overnight. The protein was aliquoted and frozen at −80° C. until further use.\n“NT” means not tested; “ND” means not determinable.", "key": {"[1]": {"conditions": "percent maximum activation of SIRT1"}, "[2]": {"conditions": "0.5 μM peptide substrate, 120 μM βNAD+, 10 nM SIRT1, 25 minutes at 25° C."}}}
{"smiles": "Cl.O=C(Nc1cncc(OC[C@H](O)CO)n1)N1c2nc(-c3cccc(C(F)(F)F)c3)c(Cl)cc2N2CC[C@H]1C2", "note": "[Example 62, (4S)-8-chloro-N-(6-((R)-2,3-dihydroxypropoxy)pyrazin-2-yl)-7-(3-(trifluoromethyl)phenyl)-3,4-dihydro-1,4-methanopyrido[2,3-b][1,4]diazepine-5(2H)-carboxamide, Hydrochloride]", "values": [{"measurement": "TRP Activity (EC1.5)", "result": "A (EC1.5<1 μM)"}, {"measurement": "TRP MAX RESP (percent maximum fold activation)", "setting": "[1]", "result": "A (Fold activation ≧150%)"}]}
{"smiles": "CCn1cc(-c2ccc3c(n2)N(C(=O)Nc2cnccn2)[C@H]2CCN3C2)cn1", "note": "[Example 225, (4S)-7-(1-ethyl-1H-pyrazol-4-yl)-N-(pyrazin-2-yl)-3,4-dihydro-1,4-methanopyrido[2,3-b][1,4]diazepine-5(2H)-carboxamide]", "values": [{"measurement": "TRP Activity (EC1.5, concentration of test compound that results in 150% activation of SIRT1)", "setting": "[2]", "result": "B (EC1.5 1-25 μM)"}, {"measurement": "TRP MAX RESP (percent maximum fold activation)", "setting": "[2]", "result": "A (Fold activation ≧150%)"}]}
{"smiles": "CC(C)n1cc(-c2ccc3c(n2)N(C(=O)Nc2cnccn2)[C@H]2CCN3C2)cn1", "note": "[Example 252]", "values": [{"measurement": "TRP MAX RESP (percent maximum fold activation)", "setting": "[2]", "result": "A (Fold activation ≧150%)"}]}
{"smiles": "Cc1cc(-c2nc3c(c(C)c2C)N2CC[C@@H](C2)N3C(=O)Nc2ccccn2)ccn1", "note": "[Example 25, (4S)-8,9-dimethyl-7-(2-methylpyridin-4-yl)-N-(pyridin-2-yl)-3,4-dihydro-1,4-methanopyrido[2,3-b][1,4]diazepine-5(2H)-carboxamide]", "values": [{"measurement": "TRP Activity (EC1.5)", "result": "B (EC1.5 1-25 μM)"}, {"measurement": "TRP MAX RESP (percent maximum fold activation)", "setting": "[1]", "result": "A (Fold activation ≧150%)"}]}
{"smiles": "Cc1ncc(-c2ccc3c(n2)N(C(=O)Nc2cnccn2)[C@H]2CCN3C2)cn1", "note": "[Example 165, (4S)-7-(2-methylpyrimidin-5-yl)-N-(pyrazin-2-yl)-3,4-dihydro-1,4-methanopyrido[2,3-b][1,4]diazepine-5(2H)-carboxamide]", "values": [{"measurement": "TRP Activity (EC1.5)", "result": "B (EC1.5 1-25 μM)"}, {"measurement": "TRP MAX RESP (percent maximum fold activation)", "setting": "[1]", "result": "A (Fold activation ≧150%)"}]}
{"smiles": "Cc1cc(-c2nc3c(cc2Br)N2CC[C@@H](C2)N3C(=O)Nc2ccccn2)ccn1", "note": "[Example 11, (4S)-8-bromo-7-(2-methylpyridin-4-yl)-N-(pyridin-2-yl)-3,4-dihydro-1,4-methanopyrido[2,3-b][1,4]diazepine-5(2H)-carboxamide]", "values": [{"measurement": "TRP Activity (EC1.5)", "result": "B (EC1.5 1-25 μM)"}, {"measurement": "TRP MAX RESP (percent maximum fold activation)", "setting": "[1]", "result": "A (Fold activation ≧150%)"}]}
{"smiles": "Cc1cc(-c2ccc3c(n2)N(C(=O)Nc2cnc4c(c2)OCCO4)[C@H]2CCN3C2)ccn1", "note": "[Example 148, (4S)-N-(2,3-dihydro-[1,4]dioxino[2,3-b]pyridin-7-yl)-7-(2-methylpyridin-4-yl)-3,4-dihydro-1,4-methanopyrido[2,3-b][1,4]diazepine-5(2H)-carboxamide]", "values": [{"measurement": "TRP MAX RESP (percent maximum fold activation)", "setting": "[1]", "result": "A (Fold activation ≧150%)"}]}
{"smiles": "O=C(Nc1cccnc1)N1c2nc(N3CCOC[C@@H]3CO)ccc2N2CC[C@H]1C2", "note": "[Example 203, (4S)-7-((S)-3-(hydroxymethyl)morpholino)-N-(pyridin-3-yl)-3,4-dihydro-1,4-methanopyrido[2,3-b][1,4]diazepine-5(2H)-carboxamide]", "values": [{"measurement": "TRP Activity (EC1.5, concentration of test compound that results in 150% activation of SIRT1)", "setting": "[2]", "result": "C (EC1.5>25 μM)"}, {"measurement": "TRP MAX RESP (percent maximum fold activation)", "setting": "[2]", "result": "B (Fold Activation <150%)"}]}
{"smiles": "Cc1cc(-c2ccc3c(n2)N(C(=O)Nc2nccc(-c4cnco4)n2)[C@H]2CCN3C2)ccn1", "note": "[Example 355]", "values": [{"measurement": "TRP MAX RESP (percent maximum fold activation)", "setting": "[2]", "result": "A (Fold activation ≧150%)"}]}
{"smiles": "Cc1ncc(-c2ccc3c(n2)N(C(=O)Nc2cnccn2)[C@H]2CCN3C2)o1", "note": "[Example 162, (4S)-7-(2-methyloxazol-5-yl)-N-(pyrazin-2-yl)-3,4-dihydro-1,4-methanopyrido[2,3-b][1,4]diazepine-5(2H)-carboxamide]", "values": [{"measurement": "TRP Activity (EC1.5)", "result": "B (EC1.5 1-25 μM)"}, {"measurement": "TRP MAX RESP (percent maximum fold activation)", "setting": "[1]", "result": "A (Fold activation ≧150%)"}]}
{"smiles": "O=C(Nc1cnccn1)N1c2nc(-c3ccnc(C4CC4)c3)ccc2N2CC[C@H]1C2", "note": "[Example 136, (4S)-7-(2-cyclopropylpyridin-4-yl)-N-(pyrazin-2-yl)-3,4-dihydro-1,4-methanopyrido[2,3-b][1,4]diazepine-5(2H)-carboxamide]", "values": [{"measurement": "TRP Activity (EC1.5)", "result": "A (EC1.5<1 μM)"}, {"measurement": "TRP MAX RESP (percent maximum fold activation)", "setting": "[1]", "result": "A (Fold activation ≧150%)"}]}
{"smiles": "Cc1ncc(-c2ccc3c(n2)N(C(=O)Nc2cnccn2)[C@H]2CCN3C2)s1", "note": "[Example 214, (4S)-7-(2-methylthiazol-5-yl)-N-(pyrazin-2-yl)-3,4-dihydro-1,4-methanopyrido[2,3-b][1,4]diazepine-5(2H)-carboxamide]", "values": [{"measurement": "TRP Activity (EC1.5, concentration of test compound that results in 150% activation of SIRT1)", "setting": "[2]", "result": "B (EC1.5 1-25 μM)"}, {"measurement": "TRP MAX RESP (percent maximum fold activation)", "setting": "[2]", "result": "A (Fold activation ≧150%)"}]}
{"smiles": "CC[C@@H]1CN(c2ccc3c(n2)N(C(=O)Nc2cnccn2)[C@H]2CCN3C2)CCO1", "values": [{"measurement": "TRP MAX RESP (percent maximum fold activation)", "setting": "[2]", "result": "A (Fold activation ≧150%)"}]}
{"smiles": "Cc1cc(-c2nc3c(cc2C)N2CC[C@@H](C2)N3C(=O)Nc2cccnc2)ccn1", "note": "[Example 17, (4S)-8-methyl-7-(2-methylpyridin-4-yl)-N-(pyridin-3-yl)-3,4-dihydro-1,4-methano pyrido[2,3-b][1,4]diazepine-5(2H)-carboxamide]", "values": [{"measurement": "TRP Activity (EC1.5)", "result": "B (EC1.5 1-25 μM)"}, {"measurement": "TRP MAX RESP (percent maximum fold activation)", "setting": "[1]", "result": "A (Fold activation ≧150%)"}]}
{"smiles": "Cc1cc(NC(=O)N2c3nc(-c4ccnc(C)c4)ccc3N3CC[C@H]2C3)ccn1", "note": "[Example 235, (4S)-N-7-bis(2-methylpyridin-4-yl)-3,4-dihydro-1,4-methanopyrido[2,3-b][1,4]diazepine-5(2H)-carboxamide]", "values": [{"measurement": "TRP Activity (EC1.5, concentration of test compound that results in 150% activation of SIRT1)", "setting": "[2]", "result": "B (EC1.5 1-25 μM)"}, {"measurement": "TRP MAX RESP (percent maximum fold activation)", "setting": "[2]", "result": "A (Fold activation ≧150%)"}]}
{"smiles": "O=C(Nc1cccc(OC[C@@H](O)CO)n1)N1c2nc(-c3cccc(C(F)(F)F)c3)c(Cl)cc2N2CC[C@H]1C2", "note": "[Example 71, (4S)-8-chloro-N-(6-((S)-2,3-dihydroxypropoxy)pyridin-2-yl)-7-(3-(trifluoromethyl)phenyl)-3,4-dihydro-1,4-methanopyrido[2,3-b][1,4]diazepine-5(2H)-carboxamide]", "values": [{"measurement": "TRP Activity (EC1.5)", "result": "A (EC1.5<1 μM)"}, {"measurement": "TRP MAX RESP (percent maximum fold activation)", "setting": "[1]", "result": "A (Fold activation ≧150%)"}]}
{"smiles": "Cc1cc(-c2ccc3c(n2)N(C(=O)NC2CCCC2)[C@H]2CCN3C2)ccn1", "note": "[Example 175, (4S)-N-cyclopentyl-7-(2-methylpyridin-4-yl)-3,4-dihydro-1,4-methanopyrido[2,3-b][1,4]diazepine-5(2H)-carboxamide]", "values": [{"measurement": "TRP Activity (EC1.5)", "result": "B (EC1.5 1-25 μM)"}, {"measurement": "TRP MAX RESP (percent maximum fold activation)", "setting": "[1]", "result": "A (Fold activation ≧150%)"}]}
{"smiles": "Cl.O=C(Nc1ccnc(OC[C@@H](O)CO)n1)N1c2nc(-c3cccc(C(F)(F)F)c3)c(Cl)cc2N2CC[C@H]1C2", "note": "[Example 28, (4S)-8-chloro-N-(2-((S)-2,3-dihydroxypropoxy)pyrimidin-4-yl)-7-(3-(trifluoromethyl)phenyl)-3,4-dihydro-1,4-methanopyrido[2,3-b][1,4]diazepine-5(2H)-carboxamide, Hydrochloride]", "values": [{"measurement": "TRP Activity (EC1.5)", "result": "A (EC1.5<1 μM)"}, {"measurement": "TRP MAX RESP (percent maximum fold activation)", "setting": "[1]", "result": "A (Fold activation ≧150%)"}]}
